Reference: article PMC7753147, “High-throughput determination of protein affinities using unmodified peptide libraries in nanomolar scale” (iScience, 2020)
pKi: −log10 of the molar value. Where a SMILES comes first, the peptide text is derived from it.

Legend:
gephE [1] = target: T1, gephE (Rattus norvegicus, UniProt Q03555); experiment: TRIC displacement 12-point dose response against gephE-NN1D-Alexa647 complex; assay type: binding
T1 construct: gephE (residues 318-736) was generated; made in house
T1 sequence (Q03555 350-768): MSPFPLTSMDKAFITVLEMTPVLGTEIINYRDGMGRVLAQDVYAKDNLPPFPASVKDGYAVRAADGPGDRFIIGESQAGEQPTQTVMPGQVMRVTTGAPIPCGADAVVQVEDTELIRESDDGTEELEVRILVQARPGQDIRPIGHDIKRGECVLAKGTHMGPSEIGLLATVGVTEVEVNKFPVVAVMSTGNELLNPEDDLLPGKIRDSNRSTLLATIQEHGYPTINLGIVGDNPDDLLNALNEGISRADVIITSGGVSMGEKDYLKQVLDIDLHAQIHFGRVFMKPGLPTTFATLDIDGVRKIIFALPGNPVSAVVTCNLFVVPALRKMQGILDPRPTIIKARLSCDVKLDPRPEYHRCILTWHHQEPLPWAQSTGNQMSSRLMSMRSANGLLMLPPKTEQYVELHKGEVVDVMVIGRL

native geph = experiment: µSPOT peptide microarray binding assay with native geph from mouse brain lysate
Method: Preparation of Mouse Tissue Lysates
Whole mouse brains were obtained from C57BL/6J mice at >4 weeks of age and 80 immediately flash frozen in liquid N2. Tissue of mRFP-gephyrin knock-in animals of 1 year of age (provided by Christian Specht, IBENS, Paris) was processed the same way. Before lysis, whole mouse brains were weighted and cut into four pieces along the coronal and sagittal axis. For preparation of one lysate, two diagonally opposite pieces were transferred into a 1.5 mL reaction tube (Sarsted). Lysis was carried out on ice in 400 µL RIPA lysis buffer (150 mM 85 NaCl, 50 mM Tris-HCl (pH=8), 1% Nonident P-40 substitute, 0.5% DOC, 0.1% SDS (all v/v)), to which Ethylenediaminetetraacetic acid (5 mM end concentration) and 1 mini tablet of ROCHE complete protease inhibitor per 10 mL was added immediately before use, by hand crushing the brain material with a hand pestle in a 1.5 mL reaction tube. Lysis was completed by 1 min sonification on ice with a Sartorius Labsonic M Sonificator at 20% amplitude with 90 care to avoid heating the suspensions. Finally, Lysates were centrifuged for 15 min at 17,200×g and 4 °C. The SN was subsequently collected, transferred to a new 1.5 mL reaction tube, flash frozen in liquid N2 and stored at -80 °C until use.
95 µSPOT slides were blocked by incubation with 2.5 mL 2% (w/v) IGG free bovine serum

FL-geph = experiment: µSPOT peptide microarray binding assay with full-length geph
gephE [2] = experiment: µSPOT peptide microarray binding assay with recombinant gephE
[3] = µSPOT full positional scan of GlyRβ 15-mer DLRSNDFSIVGSLPR, native geph, intensity normalised to wild-type sequence (= 1)
[4] = µSPOT full positional scan of GlyRβ 15-mer DLRSNDFSIVGSLPR, intensity normalised to wild-type sequence (= 1)
[5] = µSPOT peptide microarray, GlyRβ full positional scan, native geph from mouse brain lysate, intensity normalised to wild-type sequence DLRSNDFSIVGSLPR (=1)
[6] = µSPOT peptide microarray, GlyRβ full positional scan, intensity normalised to wild-type sequence DLRSNDFSIVGSLPR (=1)
[7] = µSPOT peptide microarray, GlyRβ full positional scan, recombinant gephE, intensity normalised to wild-type sequence DLRSNDFSIVGSLPR (=1)

| Molecule | pKi (gephE [1]) | Native geph Binding Intensity [norm.] (native geph; [5]) | Fl-geph Binding Intensity [norm.] (FL-geph; [6]) | gephE Binding Intensity [norm.] (gephE [2]; [7]) | other results |
| --- | --- | --- | --- | --- | --- |
| CC[C@H](C)[C@H](NC(=O)[C@H](CO)NC(=O)[C@H](Cc1ccc(O)cc1)NC(=O)[C@H](CC(=O)O)NC(=O)[C@H](CC(N)=O)NC(=O)[C@H](CO)NC(=O)[C@H](CCCNC(=N)N)NC(=O)[C@H](CC(C)C)NC(=O)[C@@H](N)CC(=O)O)C(=O)N[C@H](C(=O)NCC(=O)N[C@@H](CO)C(=O)N[C@@H](CC(C)C)C(=O)N1CCC[C@H]1C(=O)N[C@@H](CCCNC(=N)N)C(N)=O)C(C)C [GlyRβ_Full_Positional_Scan_129] (H-DLRSNDYSIVGSLPR-NH2) | 3.73 | – | – | – | – |
| CC[C@H](C)[C@H](NC(=O)CNC(=O)[C@H](Cc1ccccc1)NC(=O)[C@H](CC(=O)O)NC(=O)[C@H](CC(N)=O)NC(=O)[C@H](CO)NC(=O)[C@H](CCCNC(=N)N)NC(=O)[C@H](CC(C)C)NC(=O)[C@@H](N)CC(=O)O)C(=O)N[C@H](C(=O)NCC(=O)N[C@@H](CO)C(=O)N[C@@H](CC(C)C)C(=O)N1CCC[C@H]1C(=O)N[C@@H](CCCNC(=N)N)C(N)=O)C(C)C [GlyRβ_Full_Positional_Scan_142] (H-DLRSNDFGIVGSLPR-NH2) | 4.37 | – | – | – | – |
| CC(C)C[C@H](NC(=O)[C@@H](N)CC(=O)O)C(=O)N[C@@H](CCCNC(=N)N)C(=O)N[C@@H](CO)C(=O)N[C@@H](CC(N)=O)C(=O)N[C@@H](CC(=O)O)C(=O)N[C@@H](Cc1ccccc1)C(=O)N[C@@H](CO)C(=O)N[C@H](C(=O)N[C@H](C(=O)NCC(=O)N[C@@H](CO)C(=O)N[C@@H](CC(C)C)C(=O)N1CCC[C@H]1C(=O)N[C@@H](CCCNC(=N)N)C(N)=O)C(C)C)C(C)C [GlyRβ_Full_Positional_Scan_166] (H-DLRSNDFSVVGSLPR-NH2) | 4.67 | – | – | – | – |
| CC(C)C[C@H](NC(=O)[C@H](CO)NC(=O)[C@H](Cc1ccccc1)NC(=O)[C@H](CC(=O)O)NC(=O)[C@H](CC(N)=O)NC(=O)[C@H](CO)NC(=O)[C@H](CCCNC(=N)N)NC(=O)[C@H](CC(C)C)NC(=O)[C@@H](N)CC(=O)O)C(=O)N[C@H](C(=O)NCC(=O)N[C@@H](CO)C(=O)N[C@@H](CC(C)C)C(=O)N1CCC[C@H]1C(=O)N[C@@H](CCCNC(=N)N)C(N)=O)C(C)C [GlyRβ_Full_Positional_Scan_164] (H-DLRSNDFSLVGSLPR-NH2) | 4.65 | – | – | – | – |
| CC[C@H](C)[C@H](NC(=O)[C@H](CO)NC(=O)[C@H](Cc1c[nH]c2ccccc12)NC(=O)[C@H](CC(=O)O)NC(=O)[C@H](CC(N)=O)NC(=O)[C@H](CO)NC(=O)[C@H](CCCNC(=N)N)NC(=O)[C@H](CC(C)C)NC(=O)[C@@H](N)CC(=O)O)C(=O)N[C@H](C(=O)NCC(=O)N[C@@H](CO)C(=O)N[C@@H](CC(C)C)C(=O)N1CCC[C@H]1C(=O)N[C@@H](CCCNC(=N)N)C(N)=O)C(C)C [GlyRβ_Full_Positional_Scan_128] (H-DLRSNDWSIVGSLPR-NH2) | 4.50 | – | – | – | – |
| CC[C@H](C)[C@H](NC(=O)[C@@H](NC(=O)[C@H](Cc1ccccc1)NC(=O)[C@H](CC(=O)O)NC(=O)[C@H](CC(N)=O)NC(=O)[C@H](CO)NC(=O)[C@H](CCCNC(=N)N)NC(=O)[C@H](CC(C)C)NC(=O)[C@@H](N)CC(=O)O)[C@@H](C)O)C(=O)N[C@H](C(=O)NCC(=O)N[C@@H](CO)C(=O)N[C@@H](CC(C)C)C(=O)N1CCC[C@H]1C(=O)N[C@@H](CCCNC(=N)N)C(N)=O)C(C)C [GlyRβ_Full_Positional_Scan_156] (H-DLRSNDFTIVGSLPR-NH2) | 4.78 | – | – | – | – |
| CC[C@H](C)[C@H](NC(=O)[C@H](CO)NC(=O)[C@H](Cc1ccccc1)NC(=O)[C@H](CC(=O)O)NC(=O)[C@H](CC(N)=O)NC(=O)[C@H](CO)NC(=O)[C@H](CCCNC(=N)N)NC(=O)[C@H](CC(C)C)NC(=O)[C@@H](N)CC(=O)O)C(=O)N[C@H](C(=O)NCC(=O)N[C@@H](CO)C(=O)N[C@@H](CC(C)C)C(=O)N1CCC[C@H]1C(=O)N[C@@H](CCCNC(=N)N)C(N)=O)[C@@H](C)CC [GlyRβ_Full_Positional_Scan_183] (H-DLRSNDFSIIGSLPR-NH2) | 5.05 | – | – | – | – |
| DLRSNDFSIVGSMPR [GlyRβ_Full_Positional_Scan_258] | – | – | – | – | Native geph Binding Intensity [norm.] (native geph; [3]): 0.92 norm.; Fl-geph Binding Intensity [norm.] (FL-geph; [4]): 1.08 norm.; gephE Binding Intensity [norm.] (gephE [2]; [4]): 0.69 norm. |
| CLRSNDFSIVGSLPR [GlyRβ_Full_Positional_Scan_017] | – | 0.99 norm. | 0.88 norm. | 1.12 norm. | – |
| DLRSNDFSIVGSLPE [GlyRβ_Full_Positional_Scan_291] | – | – | – | – | Native geph Binding Intensity [norm.] (native geph; [3]): 0.49 norm.; Fl-geph Binding Intensity [norm.] (FL-geph; [4]): 0.84 norm.; gephE Binding Intensity [norm.] (gephE [2]; [4]): 0.82 norm. |
| YLRSNDFSIVGSLPR [GlyRβ_Full_Positional_Scan_009] | – | 0.74 norm. | 1 norm. | 1.05 norm. | – |
| DLRNNDFSIVGSLPR [GlyRβ_Full_Positional_Scan_079] | – | 0.88 norm. | 0.99 norm. | 0.92 norm. | – |
| DLRSNDSSIVGSLPR [GlyRβ_Full_Positional_Scan_135, GlyR β 414-428 variant F420S] | – | 0.35 norm. | 0.46 norm. | 0.51 norm. | – |
| DLRSNDFSIVGSLPN [GlyRβ_Full_Positional_Scan_299] | – | – | – | – | Native geph Binding Intensity [norm.] (native geph; [3]): 1.37 norm.; Fl-geph Binding Intensity [norm.] (FL-geph; [4]): 1.36 norm.; gephE Binding Intensity [norm.] (gephE [2]; [4]): 0.98 norm. |
| DLRSNPFSIVGSLPR [GlyRβ_Full_Positional_Scan_105] | – | 0.58 norm. | 0.85 norm. | 0.89 norm. | – |
| DLRSNVFSIVGSLPR [GlyRβ_Full_Positional_Scan_106] | – | 0.58 norm. | 0.95 norm. | 0.81 norm. | – |
| DLRSNDFVIVGSLPR [GlyRβ_Full_Positional_Scan_146, GlyR β 414-428 variant S421V] | – | 0.23 norm. | 0.61 norm. | 0.56 norm. | – |
| DLRSNDFSIVGSLHR [GlyRβ_Full_Positional_Scan_273] | – | – | – | – | Native geph Binding Intensity [norm.] (native geph; [3]): 0.55 norm.; Fl-geph Binding Intensity [norm.] (FL-geph; [4]): 1.08 norm.; gephE Binding Intensity [norm.] (gephE [2]; [4]): 0.62 norm. |
